Experimental data published in patent US20250304547A1, “Sulfur-Containing Lipids” (NanoVation Therapeutics Inc., priority 2022, published 2025).

Legend:
FVII gene = conditions: mice, siRNA formulations of the amino lipid; cited from earlier work
[1] = Encapsulation efficiency, Quant-iT RiboGreen assay; assay type: physicochemical; conditions: firefly luciferase mRNA LNP, ionizable lipid/DSPC/chol/PEG-DMG 50/10/38.5/1.5 mol %, N/P 6
Description: (§1) Lipids used in the formulation, nor-MC3, 4, DSPC, cholesterol, and PEG-DMG, were dissolved in ethanol at the appropriate ratios to a final concentration of 10 mM total lipid. Nucleic acid (mRNA) was dissolved in an appropriate buffer such as 25 mM sodium acetate pH 4 or sodium citrate pH 4 to a concentration necessary to achieve the appropriate amine-to-phosphate ratios. The aqueous and organic solutions were mixed using a rapid-mixing device as described in Kulkami et al., 2018, ACS Nano, 12:4787 and Kulkami et al., 2017, Nanoscale, 36:133347 (each incorporated herein by reference) at a flow rate ratio of 3:1 (v/v; respectively) and a total flow rate of 20 mL/min. The resultant mixture was dialyzed directly against 1000-fold volume of PBS pH 7.4. All formulations were concentrated using an Amicon™ centrifugal filter unit and analysed using the methods described below.
Particle size analysis of LNPs in PBS was carried out using backscatter measurements of dynamic light scattering with a Malvern Zetasizer™ (Worcestershire, UK). […] Total lipid concentrations were determined by extrapolation from the cholesterol content, which was measured using the Cholesterol E-Total Cholesterol Assay (Wako Diagnostics, Richmond, VA) as per the manufacturer's recommendations. Encapsulation efficiency of the formulations was determined using the Quant-iT RiboGreen™ Assay kit (Invitrogen, Waltham, MA). […]

spleen = experiment: In vivo transfection of firefly luciferase mRNA-LNP, luciferase assay of spleen; conditions: CD-1 mice, intravenous, 4 hours post-administration, mRNA LNP 50/10/38.5/1.5 mol %, N/P 6
Description: as §1
(§2) LNP-mRNA encoding firefly luciferase were injected intravenously (tail-vein) into 6-8 week old CD-1 mice. Four hours following injection, the animals were euthanized and the liver and spleen were isolated. Tissue was homogenized in Glo Lysis™ buffer and a luciferase assay performed using the Steady Glo Luciferase™ assay kit (as per manufacturers recommendations).

[2] = Particle size analysis of LNPs by dynamic light scattering; assay type: physicochemical; conditions: firefly luciferase mRNA LNP, ionizable lipid/DSPC/chol/PEG-DMG 50/10/38.5/1.5 mol %; for polydispersity index (PDI): N/P 6; for particle size (number-weighted average diameter): N/P 6, in PBS
Description: as §1
Particle size analysis of LNPs in PBS was carried out using backscatter measurements of dynamic light scattering with a Malvern Zetasizer™ (Worcestershire, UK). The reported particle sizes correspond to the number-weighted average diameters (nm). Total lipid concentrations were determined by extrapolation from the cholesterol content, which was measured using the Cholesterol E-Total Cholesterol Assay (Wako Diagnostics, Richmond, VA) as per the manufacturer's recommendations. Encapsulation efficiency of the formulations was determined using the Quant-iT RiboGreen™ Assay kit (Invitrogen, Waltham, MA). Briefly, the total mRNA content in solution was measured by lysing lipid nanoparticles in a solution of Tris-EDTA (TE) containing 2% Triton Tx-100, and free […] in solution (external to LNP) was measured based on the RiboGreen™ fluorescence in a TE solution without Triton. Total mRNA content in the formulation was determined using a modified Bligh-Dyer extraction procedure. Briefly, LNP formulations containing mRNA were dissolved in a mixture of chloroform, methanol, and PBS that results in a single phase and the absorbance at 260 nm measured using a spectrophotometer.

liver = experiment: In vivo transfection of firefly luciferase mRNA-LNP, luciferase assay of liver; conditions: CD-1 mice, intravenous, 4 hours post-administration, mRNA LNP 50/10/38.5/1.5 mol %, N/P 6
Description: as §1, §2

CCCCC/C=C\C/C=C\CCCCCCCCC1(CCCCCCCC/C=C\C/C=C\CCCCC)OCC(CCN(C)C)O1 (stereo not drawn) [KC2]
ED50 for FVII gene silencing (FVII gene): 0.1 mg/kg

CCCCCSCSCCCCCCCCC1(CCCCCCCCSCSCCCCC)OCC(CCN(C)C)O1 (stereo not drawn) [Lipid 4, 2-(2,2-bis(8-(((pentylthio)methyl)thio)octyl)-1,3-dioxolan-4-yl)-N,N-dimethyl-ethan-1-amine]
entrapment / encapsulation efficiency [1]: ~90% | luminescence intensity/mg of spleen, relative to the nor-MC3 formulation (spleen): higher luminescence intensity in the spleen | polydispersity index (PDI) [2]: about 0.090 | particle size (number-weighted average diameter) [2]: about 50.0 nm | luminescence intensity/mg of liver, relative to the nor-MC3 formulation (liver): trend was reversed in the liver

nor-MC3 [reference compound]
entrapment / encapsulation efficiency [1]: 94% | polydispersity index (PDI) [2]: about 0.075 | particle size (number-weighted average diameter) [2]: about 39.9 nm
